Test results taken from patent US12653902B2, “Photo-immunoconjugate formulations and methods of treatment relating thereto” (University of Maryland, College Park, priority 2019, dated 2026).

Experiments:
[1] = Absorbance at 690 nm in PBS compared to DMSO; format: physicochemical; settings: fixed BPD concentration
[2] = Photoactivity (maximal fluorescence intensity in PBS divided by that in DMSO); format: physicochemical; settings: maximal FI in PBS divided by maximal FI in DMSO
Procedure: Photo-immunoconjugate-nanoliposomes (PIC-Nal) and photo-immunoconjugate-nanoliposomal irinotecan (PIC-Nal-IRI) were synthesized via cooper-free click chemistry (FIG. 1). Briefly, azide-containing PICs were mixed overnight with DBCO-containing Nal (or DBCO-containing Nal-IRI) at 60:1 ratio. Sepharose CL-4B size exclusion chromatography was used to purify PIC-Nal and PIC-Nal-IRI. Irinotecan and BPD concentrations were determined by UV-Vis spectroscopy and established molar extinction coefficients: 20985 M^−1cm^−1 at 380 nm for irinotecan, 80500 M^−1cm^−1 at 435 nm and 34,895 M^−1 cm^−1 at 687 nm for BPD (Table 1). Conjugation efficacy was determined by the molar ratio of PIC onto the liposomes to the total PIC added initially. Singlet oxygen sensor green (SOSG, 5 μM) was used to detect singlet oxygen (^1O2) yield upon light irradiation of PIC-Nal-IRI or controls. BPD concentration is fixed at 5 μM. A microplate reader (BioTek) was used to acquire SOSG fluorescence signals (Ex/Em: 504/525 nm) before and after light irradiation (690 nm, 150 mW/cm^2, 20 J/cm^2). Photoactivity is defined as the maximal fluorescence intensity (FI) of photosensitizer in PBS divided by the maximal FI of photosensitizer in DMSO.

[3] = cited from earlier work
OVCAR-5 cells = assay: Intracellular BPD uptake (BPD fluorescence, extraction and imaging); format: cell-based, human; settings: 24 hours post-incubation, compared to PIC and PIC-Nal
Procedure: For uptake and phototoxicity studies, OVCAR-5 cells (200 k cells/35-mm dish) were incubated with PIC-Nal or controls (i.e., PIC alone, no-treatment) at a fixed BPD concentration (0.25 μM) for 24 hours. For uptake study, cells were washed twice with PBS and dissolved in SOLVABLE™. The BPD fluorescence signals (Ex/Em: 435/690 nm) were acquired using a microplate reader to quantify the uptake of PIC-Nal. In another set of experiments, washed cells were fixed with 4% paraformaldehyde, and stained with DAPI. Cells were imaged with the LionHeart Imager (BioTek) using the 10× objective to visualize the BPD signal (Ex/Em: 422/690 nm) and the DAPI signal (Ex/Em: 358/461 nm). BPD fluorescence intensity was quantified using ImageJ (Schneider C A et al., NIH Image to ImageJ: 25 years of image analysis. Nat Methods 2012, 9:671-675). For phototoxicity studies, cells were irradiated with a 690 nm laser (20 J/cm^2, 150 mW/cm^2) at 24 hours post-incubation of PIC-Nal or controls. Cell viability was determined by MTT (3-(4,5-dimethylthiazol-2-yl)-2,5-diphenyltetrazolium bromide) assay (Thermo) at 24 hours post-light activation.

Q: Which “loss of absorbance value at 690 nm in PBS compared to fully dissolved in DMSO” value [1] does the source give for benzoporphyrin derivative [BPD] here?
A: The value was ~64%.

Q: And the photoactivity [2]?
A: Its photoactivity is “poor photoactivity”.

Q: And the water solubility [3]?
A: The water solubility was < 0.05 mg/mL.

Q: And the “intracellular uptake by fluorescence imaging” value (OVCAR-5 cells)?
A: Its value is “highest uptake”.
